Results: ChEMBL document CHEMBL4152365, “Discovery of DS-6930, a potent selective PPARγ modulator. Part I: Lead identification” (Bioorg Med Chem, 2018)

Key:
Rattus norvegicus [1] = experiment: Toxicity in Wistar-Imamichi rat assessed as elevation in ALT activity at 30 to 300 mg/kg, po administered via gavage once daily for 28 days; type: organism-based; conditions: in vivo, 672 h
Rattus norvegicus [2] = experiment: Toxicity in Wistar-Imamichi rat assessed as clinical abnormality at 30 to 300 mg/kg, po administered via gavage once daily for 28 days; type: organism-based; conditions: in vivo, 672 h
Rattus norvegicus [3] = experiment: Toxicity in Wistar-Imamichi rat assessed as death at 30 to 300 mg/kg, po administered via gavage once daily for 28 days; type: organism-based; conditions: in vivo, 672 h
Rattus norvegicus [4] = experiment: Toxicity in Wistar-Imamichi rat assessed as elevation in AST activity at 30 to 300 mg/kg, po administered via gavage once daily for 28 days; type: organism-based; conditions: in vivo, 672 h
Rattus norvegicus [5] = experiment: Toxicity in Wistar-Imamichi rat assessed as reduction in RBC count at 300 mg/kg, po administered via gavage once daily for 28 days relative to control; type: organism-based; set-up: scale not given: the % may be the effect or the level left; conditions: in vivo, 672 h
Rattus norvegicus [6] = experiment: Toxicity in Wistar-Imamichi rat assessed as reduction in RBC count at 100 mg/kg, po administered via gavage once daily for 28 days relative to control; type: organism-based; set-up: scale not given: the % may be the effect or the level left; conditions: in vivo, 672 h
Rattus norvegicus [7] = experiment: Toxicity in Wistar-Imamichi rat assessed as reduction in RBC count at 30 mg/kg, po administered via gavage once daily for 28 days relative to control; type: organism-based; set-up: scale not given: the % may be the effect or the level left; conditions: in vivo, 672 h
Rattus norvegicus [8] = experiment: Toxicity in Wistar-Imamichi rat assessed as effect on hemodilution by measuring increase in heart weight at 30 to 300 mg/kg, po administered via gavage once daily for 28 days; type: organism-based; conditions: in vivo, 672 h
Rattus norvegicus [9] = experiment: Toxicity in Zucker diabetic fatty rat assessed as body weight gain at 3 mg/kg, po administered once daily for 14 days relative to control; type: organism-based; conditions: in vivo, 336 h
Rattus norvegicus [10] = experiment: Glucose-lowering effect in Zucker diabetic fatty rat assessed as reduction in plasma glucose level at 3 mg/kg, po administered once daily for 14 days measured on day 14 post last dose relative to control; type: functional; set-up: scale not given: the % may be the effect or the level left
Rattus norvegicus [11] = experiment: Toxicity in Wistar-Imamichi rat assessed as effect on hemodilution by measuring increase in heart weight at 100 mg/kg, po administered via gavage once daily for 28 days; type: organism-based; conditions: in vivo, 672 h
Rattus norvegicus [12] = experiment: Toxicity in Wistar-Imamichi rat assessed as reduction in RBC count at 30 to 300 mg/kg, po administered via gavage once daily for 28 days; type: organism-based; conditions: in vivo, 672 h
[13] = Tmax in Wistar-Imamichi rat at 300 mg/kg, po via gavage once daily for 28 days measured on day 28 post dose; type: ADME, organism-based; conditions: in vivo
[14] = Cmax in Zucker diabetic fatty rat at 3 mg/kg, po dosed once daily for 14 days and followed by additional administeration on day 15; type: ADME, organism-based; set-up: dose 3 mg/kg, route oral; conditions: in vivo
[15] = Plasma concentration in hyperglycemic KK/Ta mouse at 30 mg/kg/day, po administered through diet for 3 days measured on day 3 post last dose; type: ADME, organism-based
[16] = Cmax in Wistar-Imamichi rat at 30 mg/kg, po via gavage once daily for 28 days measured on day 28 post dose; type: ADME, organism-based; set-up: dose 30 mg/kg, route oral; conditions: in vivo
Rattus norvegicus [17] = experiment: Glucose-lowering effect in Zucker diabetic fatty rat assessed as reduction in plasma glucose level at 30 mg/kg, po administered once daily for 14 days measured on day 14 post last dose relative to control; type: functional; set-up: scale not given: the % may be the effect or the level left
Rattus norvegicus [18] = experiment: Toxicity in Wistar-Imamichi rat assessed as effect on hemodilution by measuring increase in heart weight at 300 mg/kg, po administered via gavage once daily for 28 days; type: organism-based; conditions: in vivo, 672 h
[19] = Tmax in Zucker diabetic fatty rat at 3 mg/kg, po dosed once daily for 14 days and followed by additional administeration on day 15; type: ADME, organism-based; conditions: in vivo
[20] = Cmax in Zucker diabetic fatty rat at 0.3 mg/kg, po dosed once daily for 14 days and followed by additional administeration on day 15; type: ADME, organism-based; set-up: dose 0.3 mg/kg, route oral; conditions: in vivo
[21] = AUC (0 to 24 hrs) in Wistar-Imamichi rat at 0.3 mg/kg, po via gavage once daily for 28 days measured on day 28 post dose; type: ADME, organism-based; set-up: time < 24 hr, dose 0.3 mg/kg, route oral; conditions: in vivo
Rattus norvegicus [22] = experiment: Toxicity in Wistar-Imamichi rat assessed as histopathological changes in liver at 30 to 300 mg/kg, po administered via gavage once daily for 28 days; type: organism-based; conditions: in vivo, 672 h
Rattus norvegicus [23] = experiment: Toxicity in Zucker diabetic fatty rat assessed as body weight gain administered orally once daily for 14 day; type: organism-based; conditions: in vivo, po, 336 h
[24] = Cmax in Wistar-Imamichi rat at 0.3 mg/kg, po via gavage once daily for 28 days measured on day 28 post dose; type: ADME, organism-based; set-up: dose 0.3 mg/kg, route oral; conditions: in vivo
Rattus norvegicus [25] = experiment: Toxicity in Wistar-Imamichi rat assessed as effect on hematocrit at 30 to 300 mg/kg, po administered via gavage once daily for 28 days; type: organism-based; conditions: in vivo, 672 h
[26] = biological target: T1, Peroxisome proliferator-activated receptor alpha (Homo sapiens, UniProt Q07869); experiment: Agonist activity at recombinant human GAL4-DBD fused PPARalpha LBD expressed in COS7 cells after 24 hrs by luciferase reporter gene assay; type: cell-based
T1 sequence (Q07869 whole entry): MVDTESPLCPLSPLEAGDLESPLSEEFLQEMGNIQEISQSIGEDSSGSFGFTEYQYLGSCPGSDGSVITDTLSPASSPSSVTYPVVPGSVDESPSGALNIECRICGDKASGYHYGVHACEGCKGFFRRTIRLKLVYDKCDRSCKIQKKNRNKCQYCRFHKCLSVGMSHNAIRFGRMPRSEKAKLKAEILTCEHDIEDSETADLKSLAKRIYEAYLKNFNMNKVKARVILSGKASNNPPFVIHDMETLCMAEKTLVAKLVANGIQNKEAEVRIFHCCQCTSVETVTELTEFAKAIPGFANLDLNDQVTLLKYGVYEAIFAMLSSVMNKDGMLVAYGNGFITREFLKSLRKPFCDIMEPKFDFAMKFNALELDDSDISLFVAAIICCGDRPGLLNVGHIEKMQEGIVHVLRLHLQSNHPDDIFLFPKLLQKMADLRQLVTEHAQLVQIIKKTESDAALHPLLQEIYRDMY

[27] = AUC (0 to 24 hrs) in Zucker diabetic fatty rat at 3 mg/kg, po dosed once daily for 14 days and followed by additional administeration on day 15; type: ADME, organism-based; set-up: dose 3 mg/kg, time < 24 hr, route oral; conditions: in vivo
[28] = AUC (0 to 24 hrs) in Zucker diabetic fatty rat at 30 mg/kg, po dosed once daily for 14 days and followed by additional administeration on day 15; type: ADME, organism-based; set-up: time < 24 hr, dose 30 mg/kg, route oral; conditions: in vivo
[29] = AUC (0 to 24 hrs) in Wistar-Imamichi rat at 30 mg/kg, po via gavage once daily for 28 days measured on day 28 post dose; type: ADME, organism-based; set-up: time < 24 hr, dose 30 mg/kg, route oral; conditions: in vivo
[30] = Tmax in Zucker diabetic fatty rat at 30 mg/kg, po dosed once daily for 14 days and followed by additional administeration on day 15; type: ADME, organism-based; conditions: in vivo
[31] = Tmax in Wistar-Imamichi rat at 30 mg/kg, po via gavage once daily for 28 days measured on day 28 post dose; type: ADME, organism-based; conditions: in vivo
[32] = Cmax in Zucker diabetic fatty rat at 30 mg/kg, po dosed once daily for 14 days and followed by additional administeration on day 15; type: ADME, organism-based; set-up: dose 30 mg/kg, route oral; conditions: in vivo
[33] = AUC (0 to 24 hrs) in Zucker diabetic fatty rat at 0.3 mg/kg, po dosed once daily for 14 days and followed by additional administeration on day 15; type: ADME, organism-based; set-up: time < 24 hr, dose 0.3 mg/kg, route oral; conditions: in vivo
[34] = Metabolic stability in rat liver microsomes after 0.5 hrs; type: ADME, microsome; conditions: read-out: Stability
[35] = Cmax in Wistar-Imamichi rat at 300 mg/kg, po via gavage once daily for 28 days measured on day 28 post dose; type: ADME, organism-based; set-up: dose 300 mg/kg, route oral; conditions: in vivo
[36] = Cmax in Wistar-Imamichi rat at 100 mg/kg, po via gavage once daily for 28 days measured on day 28 post dose; type: ADME, organism-based; set-up: dose 100 mg/kg, route oral; conditions: in vivo
Rattus norvegicus [37] = experiment: Toxicity in Zucker diabetic fatty rat assessed as body weight gain at 30 mg/kg, po administered once daily for 14 days relative to control; type: organism-based; conditions: in vivo, 336 h
Mus musculus [38] = experiment: Glucose-lowering effect in hyperglycemic KK/Ta mouse assessed as reduction in plasma glucose level at 30 mg/kg/day, po administered through diet for 3 days relative to control; type: functional; set-up: scale not given: the % may be the effect or the level left
[39] = Tmax in Wistar-Imamichi rat at 100 mg/kg, po via gavage once daily for 28 days measured on day 28 post dose; type: ADME, organism-based; conditions: in vivo
Mus musculus [40] = experiment: Toxicity in hyperglycemic KK/Ta mouse assessed as body weight gain at 30 mg/kg/day, po administered through diet for 3 days relative to control; type: organism-based; conditions: in vivo, 72 h
[41] = AUC (0 to 24 hrs) in Wistar-Imamichi rat at 100 mg/kg, po via gavage once daily for 28 days measured on day 28 post dose; type: ADME, organism-based; set-up: time < 24 hr, dose 100 mg/kg, route oral; conditions: in vivo
[42] = AUC (0 to 24 hrs) in Wistar-Imamichi rat at 300 mg/kg, po via gavage once daily for 28 days measured on day 28 post dose; type: ADME, organism-based; set-up: dose 300 mg/kg, time < 24 hr, route oral; conditions: in vivo
[43] = Tmax in Zucker diabetic fatty rat at 0.3 mg/kg, po dosed once daily for 14 days and followed by additional administeration on day 15; type: ADME, organism-based; conditions: in vivo
Rattus norvegicus [44] = experiment: Toxicity in Zucker diabetic fatty rat assessed as body weight gain at 0.3 mg/kg, po administered once daily for 14 days relative to control; type: organism-based; conditions: in vivo, 336 h
Rattus norvegicus [45] = experiment: Glucose-lowering effect in Zucker diabetic fatty rat assessed as reduction in plasma glucose level at 0.3 mg/kg, po administered once daily for 14 days measured on day 14 post last dose relative to control; type: functional; set-up: scale not given: the % may be the effect or the level left

In the case of `CN(CCOc1ccc(CC2SC(=O)NC2=O)cc1)c1ccccn1` (configuration not stated) [ROSIGLITAZONE], the Activity (Rattus norvegicus [1]) is reported as “Non-Toxic”, the Activity (Rattus norvegicus [2]) is reported as “Non-Toxic” and the Activity (Rattus norvegicus [3]) is reported as “Non-Toxic”. For the same compound, the Activity (Rattus norvegicus [4]) was “Non-Toxic”, the Activity (Rattus norvegicus [5]) was 14.2% and the Activity (Rattus norvegicus [6]) was 8.9%. The Activity (Rattus norvegicus [7]) was 5.9%, the Activity (Rattus norvegicus [8]) was “Toxic” and the Activity (Rattus norvegicus [9]) was 12.6%. For the same compound, the Activity (Rattus norvegicus [10]) was 40.3%, the Activity (Rattus norvegicus [11]) was 24.7% and the Activity (Rattus norvegicus [12]) was “Dose-dependent effect”.

Work on `Cn1c(COc2cccc(C(=O)O)c2)nc2ccc(Oc3ccc(Cl)c(F)c3)cc21` yielded a Tmax [13] of 3 h, a Cmax [14] of 0.92 µg/mL and a concentration at 72 h [15] of 0.57 µg/mL. It also gave a Cmax [16] of 9.1 µg/mL, an Activity (Rattus norvegicus [17]) of 74.9% and an Activity (Rattus norvegicus [18]) of 9.9%. The Tmax [19] was 2.4 h, the Cmax [20] was 0.18 µg/mL and the AUC at 24 h [21] was 1.74 µg·h/mL. For the same compound, the Activity (Rattus norvegicus [22]) was “Non-Toxic”, the Activity (Rattus norvegicus [23]) was “Dose-dependent effect” and the Cmax [24] was 0.18 µg/mL. For the same compound, the Activity (Rattus norvegicus [1]) was “Toxic”, the Activity (Rattus norvegicus [25]) was “Non-Toxic” and the EC50 [26] was greater than 10 µM. The AUC at 24 h [27] was 6.75 µg·h/mL, the AUC at 24 h [28] was 55.8 µg·h/mL and the AUC at 24 h [29] was 93.7 µg·h/mL. The Activity (Rattus norvegicus [2]) was “Non-Toxic”, the Tmax [30] was 2 h and the Tmax [31] was 4 h. For the same compound, the Activity (Rattus norvegicus [3]) was “Non-Toxic”, the Cmax [32] was 8.08 µg/mL and the AUC at 24 h [33] was 1.74 µg·h/mL. For the same compound, the Activity (Rattus norvegicus [4]) was “Toxic”, the remaining at 0.5 h [34] was 94% and the Cmax [35] was 22.6 µg/mL. The Cmax [36] was 14.9 µg/mL, the Activity (Rattus norvegicus [37]) was 16.7% and the Activity (Mus musculus [38]) was 43.2%. For the same compound, the Tmax [39] was 5 h, the Activity (Rattus norvegicus [9]) was 12.4% and the Activity (Mus musculus [40]) was 4.4%. The AUC at 24 h [41] was 192 µg·h/mL, the AUC at 24 h [42] was 190 µg·h/mL and the Activity (Rattus norvegicus [10]) was 43.8%. It also gave a Tmax [43] of 6.8 h, an Activity (Rattus norvegicus [44]) of 2.3% and an Activity (Rattus norvegicus [45]) of 16.6%. For the same compound, the Activity (Rattus norvegicus [12]) was “Non-Toxic”.
